Laboratory results as given in patent publication US8173645B2 (Takeda San Diego, Inc., priority 2007, dated 2012).

Target: T1, glucokinase (GK), residues 12-465 of the human enzyme (Homo sapiens, UniProt P35557)
T1 construct: I.D. No. 1 corresponds to residues 12-465 of glucokinase; made in house; host or cells: E. coli DH10b-Tlr
T1 sequence (P35557 with tags, fused parts or gaps isoform P35557-2): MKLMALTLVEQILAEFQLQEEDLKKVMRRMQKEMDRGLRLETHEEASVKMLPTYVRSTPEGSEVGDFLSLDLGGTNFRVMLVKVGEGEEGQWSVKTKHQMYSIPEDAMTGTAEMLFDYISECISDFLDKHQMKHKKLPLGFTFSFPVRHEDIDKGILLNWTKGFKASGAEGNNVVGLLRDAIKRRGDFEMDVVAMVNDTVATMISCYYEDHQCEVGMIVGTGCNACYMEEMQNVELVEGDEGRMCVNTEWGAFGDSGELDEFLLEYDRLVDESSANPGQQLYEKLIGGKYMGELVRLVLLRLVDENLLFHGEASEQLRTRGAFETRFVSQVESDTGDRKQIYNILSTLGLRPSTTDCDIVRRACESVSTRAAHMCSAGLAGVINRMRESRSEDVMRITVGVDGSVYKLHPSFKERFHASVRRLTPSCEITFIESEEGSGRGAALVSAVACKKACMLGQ
Assay: Enzymatic glucokinase activity assay (KinaseGlo luminescence, ATP consumption)
Format: biochemical
Conditions: 5 μM ATP, 5 mM Glucose; for EC50: GK activation, Kact = concentration giving 50% of the maximal increase in GK activity, read-out: pKact; for Emax: calculated maximal gain in GK enzyme activity at a saturating concentration of the compound, read-out: % ACTmax
Method in brief: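 C-terminally FLAG-tagged enzyme expressed in E. coli and purified. Reaction: 25 mM Hepes pH 7.2, 25 mM NaCl, 10 mM MgCl2, 0.01% Brij35, 1 mM DTT, 5 μM ATP, 5 mM glucose, 2% DMSO, 60 min at room temperature. Remaining ATP was read by luciferase luminescence; pKact and % ACTmax came from nonlinear fits of 11-point 2-fold dilutions.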

Row | Compound | EC50 | Emax
1 | O=C(Nc1nccs1)[C@H](CC1CCCCC1)N1CCN(C(=S)Nc2ccc(F)cc2)CC1=O [Example 83, (S)-3-cyclohexyl-2-(4-(4-fluorophenylcarbamothioyl)-2-oxopiperazin-1-yl)N-(thiazol-2-yl)propanamide] | ≥ 3160 nM | 108 to 119%
2 | O=C(Nc1nccs1)[C@H](CC1CCCCC1)N1CCN(S(=O)(=O)c2ccc(C(F)(F)F)cc2)CC1=O [Example 55, (S)-3-cyclohexyl-2-(2-oxo-4-(4-(trifluoromethyl)phenylsulfonyl)piperazin-1-yl)N-(thiazol-2-yl)propanamide] | 794 to 1260 nM | ≤ 74%
3 | O=C(Nc1nccs1)[C@H](CC1CCCCC1)N1CCN(S(=O)(=O)c2ccco2)CC1=O [Example 108, (S)-3-cyclohexyl-2-(4-(furan-2-ylsulfonyl)-2-oxopiperazin-1-yl)-N-(thiazol-2-yl)propanamide] | ≤ 631 nM | 74.1 to 97%
4 | O=C(Nc1ncc(Cl)s1)[C@H](CC1CCOCC1)N1CCN(S(=O)(=O)c2ccc(F)cc2)CC1=O [Example 34, (S)-N-(5-chlorothiazol-2-yl)-2-(4-(4-fluorophenylsulfonyl)-2-oxopiperazin-1-yl)-3-(tetrahydro-2H-pyran-4-yl)propanamide] | 1580 to 2510 nM | 97.1 to 107%
5 | O=C(Nc1nccs1)[C@H](CC1CCCCC1)N1CCN(S(=O)(=O)c2ccc3ncsc3c2)CC1=O [Example 97, (S)-2-(4-(benzo[d]thiazol-6-ylsulfonyl)-2-oxopiperazin-1-yl)-3-cyclohexyl-N-(thiazol-2-yl)propanamide] | 794 to 1260 nM | 97.1 to 107%
6 | O=C(Nc1ncc(Cl)s1)[C@H](CC1CCOCC1)N1CCN(S(=O)(=O)C2CC2)CC1=O [Example 24, (S)-N-(5-chlorothiazol-2-yl)-2-(4-(cyclopropylsulfonyl)-2-oxopiperazin-1-yl)-3-(tetrahydro-2H-pyran-4-yl)propanamide] | 794 to 1260 nM | ≥ 119%
7 | O=C(Nc1nccs1)[C@H](CC1CCCCC1)N1CCN(S(=O)(=O)CCc2ccc(Cl)cc2)CC1=O [Example 98, (S)-2-(4-(4-chlorophenethylsulfonyl)-2-oxopiperazin-1-yl)-3-cyclohexyl-N-(thiazol-2-yl)propanamide] | 794 to 1260 nM | ≤ 74%
8 | O=C(Nc1nccs1)[C@H](CC1CCCCC1)N1CCN(C(=S)NCc2ccccc2)CC1=O [Example 82, (S)-2-(4-(benzylcarbamothioyl)-2-oxopiperazin-1-yl)-3-cyclohexyl-N-(thiazol-2-yl)propanamide] | 1580 to 2510 nM | 108 to 119%
9 | Cc1oncc1S(=O)(=O)N1CCN([C@@H](CC2CCCCC2)C(=O)Nc2nccs2)C(=O)C1 [Example 60, (S)-3-cyclohexyl-2-(4-(5-methylisoxazol-4-ylsulfonyl)-2-oxopiperazin-1-yl)-N-(thiazol-2-yl)propanamide] | 794 to 1260 nM | ≤ 74%
10 | O=C(Nc1nccs1)[C@H](CC1CCCCC1)N1CCN(S(=O)(=O)c2cc(Cl)ccc2Cl)CC1=O [Example 56, (S)-3-cyclohexyl-2-(4-(2,5-dichlorophenylsulfonyl)-2-oxopiperazin-1-yl)-N-(thiazol-2-yl)propanamide] | 794 to 1260 nM | 108 to 119%
11 | O=C(Nc1nccs1)[C@H](CC1CCCCC1)N1CCN(C(=S)Nc2cccc(C(F)(F)F)c2)CC1=O [Example 84, (S)-3-cyclohexyl-2-(2-oxo-4-(3-(trifluoromethyl)phenylcarbamothioyl)piperazin-1-yl)-N-(thiazol-2-yl)propanamide] | ≥ 3160 nM | 97.1 to 107%
12 | COc1ccc(S(=O)(=O)N2CCN([C@@H](CC3CCCCC3)C(=O)Nc3nccs3)C(=O)C2)cc1 [Example 46, (S)-3-cyclohexyl-2-(4-(4-methoxyphenylsulfonyl)-2-oxopiperazin-1-yl)-N-(thiazol-2-yl)propanamide] | 794 to 1260 nM | 97.1 to 107%
13 | O=C(O)c1cccc(S(=O)(=O)N2CCN([C@@H](CC3CCCCC3)C(=O)Nc3nccs3)C(=O)C2)c1 [Example 49, (S)-3-(4-(3-cyclohexyl-1-oxo-1-(thiazol-2-ylamino)propan-2-yl)-3-oxopiperazin-1-ylsulfonyl)benzoic acid] | ≥ 3160 nM | 74.1 to 97%
14 | O=C(Nc1ncc(Cl)s1)C(CC1CCCC1)N1CCN(S(=O)(=O)C2CC2)CC1=O (stereo not drawn) [Example 16, N-(5-chlorothiazol-2-yl)-3-cyclopentyl-2-(4-(cyclopropylsulfonyl)-2-oxopiperazin-1-yl)propanamide] | ≤ 631 nM | ≥ 119%

Continued, values first:

Row | EC50 | Emax | Compound
15 | ≥ 3160 nM | ≤ 74% | N#Cc1ccc(NC(=O)N2CCN([C@@H](CC3CCCCC3)C(=O)Nc3nccs3)C(=O)C2)cc1 [Example 132, (S)-N-(4-cyanophenyl)-4-(3-cyclohexyl-1-oxo-1-(thiazol-2-ylamino)propan-2-yl)-3-oxopiperazine-1-carboxamide]
16 | ≤ 631 nM | 108 to 119% | O=C(Nc1nccs1)[C@H](CC1CCCCC1)N1CCN(S(=O)(=O)c2cccc(Br)c2)CC1=O [Example 232, (S)-2-(4-(3-bromophenylsulfonyl)-2-oxopiperazin-1-yl)-3-cyclohexyl-N-(thiazol-2-yl)propanamide]
17 | ≥ 3160 nM | ≤ 74% | O=C(Nc1nccs1)[C@H](CC1CCCCC1)N1CCN(C(=O)Nc2ccc3sccc3c2)CC1=O [Example 144, (S)-N-(benzo[b]thiophen-5-yl)-4-(3-cyclohexyl-1-oxo-1-(thiazol-2-ylamino)propan-2-yl)-3-oxopiperazine-1-carboxamide]
18 | ≤ 631 nM | ≥ 119% | O=C(Nc1nccs1)[C@H](CC1CCCCC1)N1CCN(S(=O)(=O)c2cc(Cl)ccc2F)CC1=O [Example 185, (S)-2-(4-(5-chloro-2-fluorophenylsulfonyl)-2-oxopiperazin-1-yl)-3-cyclohexyl-N-(thiazol-2-yl)propanamide]
19 | 1580 to 2510 nM | ≤ 74% | Cc1cc(S(=O)(=O)N2CCN([C@@H](CC3CCCCC3)C(=O)Nc3nccs3)C(=O)C2)c(Cl)cc1Cl [Example 221, (S)-3-cyclohexyl-2-(4-(2,4-dichloro-5-methylphenylsulfonyl)-2-oxopiperazin-1-yl)-N-(thiazol-2-yl)propanamide]
20 | 1580 to 2510 nM | 97.1 to 107% | Cc1cc(F)ccc1S(=O)(=O)N1CCN([C@@H](CC2CCCCC2)C(=O)Nc2nccs2)C(=O)C1 [Example 223, (S)-3-cyclohexyl-2-(4-(4-fluoro-2-methylphenylsulfonyl)-2-oxopiperazin-1-yl)-N-(thiazol-2-yl)propanamide]
21 | ≤ 631 nM | 108 to 119% | Cn1ccc(S(=O)(=O)N2CCN([C@@H](CC3CCCCC3)C(=O)Nc3nccs3)C(=O)C2)n1 [Example 112, (S)-3-cyclohexyl-2-(4-(1-methyl-1H-pyrazol-3-ylsulfonyl)-2-oxopiperazin-1-yl)-N-(thiazol-2-yl)propanamide]
22 | 794 to 1260 nM | 97.1 to 107% | CCN(CC)CCCNC(=S)N1CCN([C@@H](CC2CCCCC2)C(=O)Nc2nccs2)C(=O)C1 [Example 133, (S)-3-cyclohexyl-2-(4-(3-(diethylamino)propylcarbamothioyl)-2-oxopiperazin-1-yl)-N-(thiazol-2-yl)propanamide]
23 | ≤ 631 nM | 108 to 119% | O=C(Nc1nccs1)[C@H](CC1CCCCC1)N1CCN(S(=O)(=O)c2cc(F)ccc2F)CC1=O [Example 184, (S)-3-cyclohexyl-2-(4-(2,5-difluorophenylsulfonyl)-2-oxopiperazin-1-yl)-N-(thiazol-2-yl)propanamide]
24 | ≥ 3160 nM | ≥ 119% | CCn1cc(S(=O)(=O)N2CCN([C@@H](CC3CCCCC3)C(=O)Nc3nccs3)C(=O)C2)cn1 [Example 110, (S)-3-cyclohexyl-2-(4-(1-ethyl-1H-pyrazol-4-ylsulfonyl)-2-oxopiperazin-1-yl)-N-(thiazol-2-yl)propanamide]
25 | ≤ 631 nM | 108 to 119% | Cc1ccc(S(=O)(=O)N2CCN([C@@H](CC3CCCCC3)C(=O)Nc3nccs3)C(=O)C2)cc1F [Example 189, (S)-3-cyclohexyl-2-(4-(3-fluoro-4-methylphenylsulfonyl)-2-oxopiperazin-1-yl)-N-(thiazol-2-yl)propanamide]
26 | ≥ 3160 nM | 74.1 to 97% | O=C(Nc1nccs1)[C@H](CC1CCCCC1)N1CCN(C(=O)Nc2ccc3c(c2)OCCO3)CC1=O [Example 145, (S)-4-(3-cyclohexyl-1-oxo-1-(thiazol-2-ylamino)propan-2-yl)-N-(2,3-dihydrobenzo[b][1,4]dioxin-6-yl)-3-oxopiperazine-1-carboxamide]
27 | 1580 to 2510 nM | 108 to 119% | NS(=O)(=O)c1ccc(NC(=S)N2CCN([C@@H](CC3CCCCC3)C(=O)Nc3nccs3)C(=O)C2)cc1 [Example 134, (S)-3-cyclohexyl-2-(2-oxo-4-(4-sulfamoylphenylcarbamothioyl)piperazin-1-yl)-N-(thiazol-2-yl)propanamide]
